Earlier results, collected in patent US20070213332A1, “Prodrugs Of Substituted Amino Heterobicycles Which Modulate The Function Of The Vanilloid-1 Receptor (Vr1)” (priority 2004, published 2007).

Target: VR1 (Rattus norvegicus, UniProt O35433)
Settings: Walpole et al., J. Med. Chem., 37:1942, 1994

Sequence of VR1 (O35433 whole entry): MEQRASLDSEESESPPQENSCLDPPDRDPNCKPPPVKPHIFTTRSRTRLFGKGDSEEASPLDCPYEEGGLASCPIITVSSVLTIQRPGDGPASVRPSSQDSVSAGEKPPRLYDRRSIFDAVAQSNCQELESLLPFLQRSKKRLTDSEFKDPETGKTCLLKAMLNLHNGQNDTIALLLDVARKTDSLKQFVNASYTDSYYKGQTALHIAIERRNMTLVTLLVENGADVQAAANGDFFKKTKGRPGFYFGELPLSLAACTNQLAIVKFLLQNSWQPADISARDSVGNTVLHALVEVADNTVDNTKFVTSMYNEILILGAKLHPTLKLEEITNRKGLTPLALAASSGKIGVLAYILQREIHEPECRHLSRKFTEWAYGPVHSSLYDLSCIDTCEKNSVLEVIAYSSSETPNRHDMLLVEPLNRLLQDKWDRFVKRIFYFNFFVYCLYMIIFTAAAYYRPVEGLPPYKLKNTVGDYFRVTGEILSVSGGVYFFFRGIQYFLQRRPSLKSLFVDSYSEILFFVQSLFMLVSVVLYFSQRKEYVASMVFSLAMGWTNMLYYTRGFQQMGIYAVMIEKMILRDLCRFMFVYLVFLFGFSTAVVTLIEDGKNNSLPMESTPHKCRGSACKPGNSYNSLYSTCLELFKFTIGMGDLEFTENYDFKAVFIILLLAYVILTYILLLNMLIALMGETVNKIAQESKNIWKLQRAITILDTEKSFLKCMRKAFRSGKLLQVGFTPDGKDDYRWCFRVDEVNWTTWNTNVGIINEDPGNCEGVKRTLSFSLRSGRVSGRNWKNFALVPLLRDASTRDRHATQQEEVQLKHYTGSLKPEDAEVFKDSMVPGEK

- IC50: 0.42 µM
Structure (SMILES): Oc1cc2c(cc1O)CN(C(=S)NCCc1ccc(Cl)cc1)CCC2 [capsazepine]
